Source: patent US5550212A, “Analogues of hGH-RH(1-29)NH2 having antagonistic activity” (The Administrators of the Tulane Educational Fund, priority 1993, dated 1996)
Non-standard residues stand in square brackets, D forms with d. Residues, ends and D or L forms follow the SMILES beside them. No end group written: not given here. *: point of attachment. Phe(4-Cl) = N[C@@H](Cc1ccc(Cl)cc1)C(=O)O; Agmatine = N=C(N)NCCCCN*; Isobutyryl = CC(C)C(=O)*; Nle = CCCC[C@H](N)C(=O)O; Abu = CC[C@H](N)C(=O)O; X1 = O=C(CCBr)*

How the values were obtained:
[1] = target: T1, rat pituitary GH-RH receptors (Rattus norvegicus, UniProt Q02644); assay: GH-RH binding assay, competitive binding on rat anterior pituitary membrane homogenates; conditions: for Ki: competition with labelled [His1,Nle27]hGH-RH(1-32)NH2
T1 construct: from tissue; host or cells: rat anterior pituitary (male Sprague-Dawley), crude membranes
T1 sequence (Q02644 23-464): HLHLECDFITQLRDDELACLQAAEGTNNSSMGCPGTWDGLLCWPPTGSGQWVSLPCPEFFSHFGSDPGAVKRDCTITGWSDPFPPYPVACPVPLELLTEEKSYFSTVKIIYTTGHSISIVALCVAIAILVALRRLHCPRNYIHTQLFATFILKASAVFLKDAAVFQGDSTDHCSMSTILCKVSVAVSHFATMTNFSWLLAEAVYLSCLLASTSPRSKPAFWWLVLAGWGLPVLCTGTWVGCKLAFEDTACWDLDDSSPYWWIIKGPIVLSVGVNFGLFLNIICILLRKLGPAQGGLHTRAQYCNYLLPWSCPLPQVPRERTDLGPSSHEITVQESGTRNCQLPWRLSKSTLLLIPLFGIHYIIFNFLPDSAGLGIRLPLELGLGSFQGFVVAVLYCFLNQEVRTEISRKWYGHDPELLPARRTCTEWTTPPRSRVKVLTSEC
Procedure: GH-RH Binding Assay. A sensitive radioreceptor binding assay was developed to determine the binding characteristics of the antagonists of GH-RH (G. Halmos, A. V. Schally et al., Receptor 3, 87-97, 1993), hereby incorporated by reference. The assay is based on binding of labelled [His^1,Nle^27 ]hGH-RH(1-32)NH2 to rat anterior pituitary membrane homogenates. Iodinated derivatives of [His^1,Nle^27 ]hGH-RH(1-32)NH2 are prepared by the chloramine-T method (F. C. Greenwood et al., Biochemistry 89:114-123, 1963), hereby incorporated by reference. Pituitaries from male Sprague-Dawley rats (250-300 g) are used to prepare crude membranes. For saturation binding analyses, membrane homogenates are incubated with at least 6 concentrations of [His^1,^25 I-Tyr^10,Nle^27 ]hGH-RH(1-32)NH2, ranging from 0.005 to 0.35 nM in the presence or absence of excess unlabelled peptide (1 μM). The pellet is counted for radioactivity in a y-counter. The affinities of the antagonist peptides tested to rat pituitary GH-RH receptors are determined in competitive binding experiments. The final binding affinities are estimated by Ki (dissociation constant of the inhibitor-receptor complex) and are determined by the Ligand PC computer program of Munson and Rodbard as modified by McPherson. Relative affinities compared to [Ac-Tyr^1,D-Arg^2 ]hGH-RH(1-29)NH2, the Standard antagonist, are calculated as the ratio of Ki of the tested GH-RH antagonist to the Ki of the Standard antagonist.

[2] = tested on: hGH-RH(1-29)NH2 induced GH release; assay: Superfused rat pituitary system: inhibition of hGH-RH(1-29)NH2 induced GH release; format: cell-based; conditions: for Inhibition of GH release (%) 0 min: 0 min response; for Inhibition of GH release (%) 30 min: 30 min response; for Inhibition of GH release (%) 60 min: 60 min response
Procedure: Superfused Rat Pituitary System. The analogues were tested in vitro in a test described earlier (S. Vigh and A. V. Schally, Peptides 5:241-[…], 1984) with modification ([…] and […]. 90:2146-2149, 1993). Briefly, the cells are preincubated with peptides for 9 minutes (3 mL) at various concentrations. Immediately after the incubation, 1 nM hGH-RH(1-29)NH2 is administered for 3 minutes (1 mL) [0 minute response]. To check the duration of the antagonistic effect of the analogue, 1 nM hGH-RH(1-29)NH2 is applied 30, 60, 90, and 120 minutes later for 3 minutes [30, 60, 90, 120 min responses]. Net integral values of the GH responses are evaluated. GH responses are compared to and expressed as percent of the original GH response induced by 1 nM GH-RH(1-29)NH2. The effect of the new antagonists are compared to that of [Ac-[…] ]hGH-RH(1-29)NH2, the "Standard antagonist". Growth Hormone Radio-immunoassay. Rat GH levels in aliquots of undiluted and diluted superfusion samples were measured by double-antibody radioimmunoassay using materials supplied by the National Hormone and Pituitary Program, Baltimore, Md. The results of RIA were analyzed with a computer program developed in our institute (V. Csernus and A. V. Schally, Harwood Academic (Greenstein, B. C. ed., London, pp. 71-109, 1991), hereby incorporated by reference. Inter-assay variation was less than 15% and intra-assay variation was less than 10%.

[3] = tested on: GH release; conditions: cited from earlier work; for bioactivity (in words): compared with hGH-RH(1-29)NH2

Q: For `CCCC[C@H](NC(=O)[C@@H](NC(=O)[C@H](CC(=O)O)NC(=O)[C@H](CCC(N)=O)NC(=O)[C@H](CC(C)C)NC(=O)[C@H](CC(C)C)NC(=O)[C@H](CCCCN)NC(=O)[C@H](CCCNC(=N)N)NC(=O)[C@H](C)NC(=O)[C@H](CO)NC(=O)[C@H](CC(C)C)NC(=O)[C@H](CCC(N)=O)NC(=O)[C@H](CC)NC(=O)[C@H](CC(C)C)NC(=O)[C@@H](NC(=O)[C@H](C)NC(=O)[C@H](CCCNC(=N)N)NC(=O)[C@H](Cc1ccc(O)cc1)NC(=O)[C@H](CO)NC(=O)[C@H](CC(N)=O)NC(=O)[C@@H](NC(=O)[C@H](Cc1ccc(Cl)cc1)NC(=O)[C@@H](NC(=O)[C@H](C)NC(=O)[C@H](CC(=O)O)NC(=O)[C@@H](CCCNC(=N)N)NC(=O)[C@H](Cc1ccc(O)cc1)NC(=O)C(C)C)[C@@H](C)CC)[C@@H](C)O)C(C)C)[C@@H](C)CC)C(=O)N[C@@H](CO)C(=O)N[C@@H](CCCNC(=N)N)C(N)=O` [Peptide 15, [Ibu^0,D-Arg^2,Phe(pCl)^6,Ala^12,Abu^15,Nle^27]hGH-RH(1-29)NH2] (Isobutyryl-Y[dR]DAI[Phe(4-Cl)]TNSYRAVL[Abu]QLSARKLLQDI[Nle]SR-NH2), which Ki [1] is on record?
A: 0.73 ± 0.05 nM

Q: For `CCCC[C@H](NC(=O)[C@@H](NC(=O)[C@H](CC(=O)O)NC(=O)[C@H](CCC(N)=O)NC(=O)[C@H](CC(C)C)NC(=O)[C@H](CC(C)C)NC(=O)[C@H](CCCCN)NC(=O)[C@H](CCCNC(=N)N)NC(=O)[C@H](C)NC(=O)[C@H](CO)NC(=O)[C@H](CC(C)C)NC(=O)[C@H](CCC(N)=O)NC(=O)[C@H](CC)NC(=O)[C@H](CC(C)C)NC(=O)[C@@H](NC(=O)[C@H](CCCCN)NC(=O)[C@H](CCCNC(=N)N)NC(=O)[C@H](Cc1ccc(O)cc1)NC(=O)[C@H](CO)NC(=O)[C@H](CC(N)=O)NC(=O)[C@@H](NC(=O)[C@H](Cc1ccc(Cl)cc1)NC(=O)[C@@H](NC(=O)[C@H](C)NC(=O)[C@H](CC(=O)O)NC(=O)[C@@H](CCCNC(=N)N)NC(=O)[C@H](Cc1ccc(O)cc1)NC(=O)C(C)C)[C@@H](C)CC)[C@@H](C)O)C(C)C)[C@@H](C)CC)C(=O)N[C@@H](CO)C(=O)NCCCCNC(=N)N` [Peptide 19, Ibu^0,D-Arg^2, Phe(pCl)^6,Abu^15,Nle^27]hGH-RH(1-28)Agm] (Isobutyryl-Y[dR]DAI[Phe(4-Cl)]TNSYRKVL[Abu]QLSARKLLQDI[Nle]S-Agmatine), which Ki [1] is on record?
A: 0.12 ± 0.04 nM

Q: Which results are given for `CCCC[C@H](NC(=O)[C@@H](NC(=O)[C@H](CC(=O)O)NC(=O)[C@H](CCC(N)=O)NC(=O)[C@H](CC(C)C)NC(=O)[C@H](CC(C)C)NC(=O)[C@H](CCCCN)NC(=O)[C@H](CCCNC(=N)N)NC(=O)[C@H](C)NC(=O)[C@H](CO)NC(=O)[C@H](CC(C)C)NC(=O)[C@H](CCC(N)=O)NC(=O)[C@H](CC)NC(=O)[C@H](CC(C)C)NC(=O)[C@@H](NC(=O)[C@H](CCCCN)NC(=O)[C@H](CCCNC(=N)N)NC(=O)[C@H](Cc1ccc(O)cc1)NC(=O)[C@H](CO)NC(=O)[C@H](CC(N)=O)NC(=O)[C@@H](NC(=O)[C@H](Cc1ccc(Cl)cc1)NC(=O)[C@@H](NC(=O)[C@H](C)NC(=O)[C@H](CC(=O)O)NC(=O)[C@@H](CCCNC(=N)N)NC(=O)[C@H](Cc1ccc(O)cc1)NC(=O)CCBr)[C@@H](C)CC)[C@@H](C)O)C(C)C)[C@@H](C)CC)C(=O)N[C@@H](CO)C(=O)NCCCCNC(=N)N` [Peptide 20] (X1-Y[dR]DAI[Phe(4-Cl)]TNSYRKVL[Abu]QLSARKLLQDI[Nle]S-Agmatine; N-terminus assumed)?
A: R.A. (relative affinity compared to the Standard antagonist) ([1]; ratio of Ki values, Standard = 1): 3.27; Inhibition of GH release (%) 0 min ([2]; dose 10 nM): 56.2%; Inhibition of GH release (%) 30 min ([2]; dose 10 nM): 35.2%; Inhibition of GH release (%) 60 min ([2]; dose 10 nM): 51.8%; Inhibition of GH release (%) 0 min ([2]; dose 30 nM): 58%; Inhibition of GH release (%) 30 min ([2]; dose 30 nM): 19.3%; Inhibition of GH release (%) 60 min ([2]; dose 30 nM): 35.3%; Inhibition of GH release (%) 0 min ([2]; dose 100 nM): 86.4%; Inhibition of GH release (%) 30 min ([2]; dose 100 nM): 75%; Inhibition of GH release (%) 60 min ([2]; dose 100 nM): 62.8%

Q: For “GH-RH(1-27)NH2 (YADAIFTNSYRKVLGQLSARKLLQDIM-NH2; UniProt P01286 32-58, looked up, fragment) [shorter GH-RH analogue]”, which “bioactivity (in words)” value [3] is on record?
A: substantially lower bioactivity

Q: Which “bioactivity (in words)” value [3] does the source give for “GH-RH(1-28)NH2 (YADAIFTNSYRKVLGQLSARKLLQDIMS-NH2; UniProt P01286 32-59, looked up, fragment) [shorter GH-RH analogue]” here?
A: substantially lower bioactivity

Q: With “[Ac-Tyr^1 ]GH-RH (Ac-YADAIFTNSYRKVLGQLSARKLLQDIMSRQQGESNQERGARARL; ends and bridges not checked; UniProt P01286 32-75, looked up)” as the molecule, how does the “GH releasing activity relative to GH-RH” value [3] read?
A: 2-3%

Q: Which “GH releasing activity relative to GH-RH” value [3] does the source give for [D-Tyr^1 ]GH-RH here?
A: 2-3%

Q: For “hGH-RH(2-44) (ADAIFTNSYRKVLGQLSARKLLQDIMSRQQGESNQERGARARL; ends and bridges not checked; UniProt P01286 33-75, looked up, fragment) [GH-RH without its N-terminus residue]”, which “GH releasing activity relative to GH-RH” value [3] is on record?
A: 0.1%
